# Like-named read-outs stand apart in the source and are kept apart here.
# How the values were obtained:
# in vivo = conditions: monkey
# [1] = both, human, in vivo
# [2] = human, in vivo
# [3] = human, in vivo, 500 mg
# [4] = Urine PK and renal clearance of compound 1, Phase 1 study
# [5] = Phase 1 study, safety and tolerability in healthy participants
# [6] = Intracellular PK of compound A (GS-443902) in PBMCs, Phase 1 study; conditions: healthy participants
# [7] = Phase 1 single- and multiple-ascending dose study, compound 1 plasma PK in healthy participants
# [8] = human, in vivo; remark: listed apart in the source
# Source text: To note, eGFR was estimated using Modification of Diet in Renal Disease (MDRD) equation shown below. Furthermore, participants with kidney failure who were on dialysis are not included in this regression analysis.
smiles,measurement,setting,value
N#C[C@@]1(c2ccc3c(N)ncnn23)O[C@H](CO)[C@@H](O)[C@H]1O [compound 1],AUC(0-t),in vivo,18200 to 36400 ng·h/mL
"CC(C)C(=O)OC[C@H]1O[C@@](C#N)(c2ccc3c(N)ncnn23)[C@H](O)[C@@H]1O [compound 16, obeldesivir]",compound 1 terminal plasma elimination half-life,[1],6 to 7 h
same,Compound 1 plasma AUC (AUCinf),[1]; 100 mg,3700 ng·h/mL
same,Compound 1 plasma Cmax,[1]; 100 mg,570 ng/mL
same,Compound 1 plasma t1/2,[1]; 100 mg,5.85 h
same,Compound 1 plasma AUC (AUCinf),[1]; 300 mg,"10,400 h · ng/mL"
same,Compound 1 plasma Cmax,[1]; 300 mg,1830 ng/mL
same,Compound 1 plasma Tmax,[1]; 300 mg,0.78 h
same,Compound 1 plasma Cmax,[1]; 500 mg,3820 ng/mL
same,Compound 1 plasma AUC (AUCD1),[1]; 900 mg,"32,000 h · ng/mL"
same,Compound 1 plasma AUC (AUCinf),[1]; 900 mg,"34,600 h · ng/mL"
same,Compound 1 plasma AUC (AUCtau),[1]; 900 mg,"35,700 h · ng/mL"
same,Compound 1 plasma Tmax,[1]; 900 mg,1.5 h
same,Compound 1 plasma t1/2,[1]; 900 mg,7.36 h
same,Compound 1 plasma AUC (AUCinf),[1]; 1600 mg,"48,300 h · ng/mL"
same,Compound 1 plasma Cmax,[1]; 1600 mg,7170 ng/mL
same,Compound 1 plasma Tmax,[1]; 1600 mg,1.5 h
same,Compound 1 plasma t1/2,[1]; 1600 mg,15.7 h
same,plasma half-life of metabolite compound 1,[1]; po,~6 h
same,compound 1 metabolite renal clearance,[2],150 to 180 mL/min
same,Compound 1 plasma AUC0-24,[3],"20,903 h · ng/mL"
same,Compound 1 plasma AUCinf,[3],"22,100 h · ng/mL"
same,Compound 1 plasma AUClast,[3],"22,000 h · ng/mL"
same,Compound 1 plasma Cmax,[3],3600 ng/mL
same,Compound 1 plasma t1/2,[3],6.3 h
same,compound 16 in urine,[4]; in vivo,not detectable
same,AE,[5]; 500 mg BID (n = 6),2 n
same,AE related to study drug,[5]; 500 mg BID (n = 6),1 n
same,Grade 2 creatinine clearance decrease,[5]; 500 mg BID (n = 6),0 n
same,Grade 2 laboratory abnormalities,[5]; 500 mg BID (n = 6),0 n
same,Grade 3 laboratory abnormalities,[5]; 500 mg BID (n = 6),0 n
same,Grade 3 lipase increase,[5]; 500 mg BID (n = 6),0 n
same,Grade ≥3 AE,[5]; 500 mg BID (n = 6),0 n
same,AE,[5]; 900 mg QD (n = 6),1 n
same,AE related to study drug,[5]; 900 mg QD (n = 6),0 n
same,Grade 2 creatinine clearance decrease,[5]; 900 mg QD (n = 6),2 n
same,Grade 2 laboratory abnormalities,[5]; 900 mg QD (n = 6),2 n
same,Grade 3 laboratory abnormalities,[5]; 900 mg QD (n = 6),0 n
same,Grade 3 lipase increase,[5]; 900 mg QD (n = 6),0 n
same,Grade ≥3 AE,[5]; 900 mg QD (n = 6),0 n
same,participants with headache (Grade 1) attributed to study drug,"[5]; 2 of 8 participants, Cohort 5 (500 mg BID for 5 days)",25%
same,participants with contact dermatitis,[5]; 2 of 48 participants,4.2%
same,participants with study drug-related AEs (headaches),[5]; 2 of 58 participants who received compound 16,3.4%
same,participants with headache,[5]; 3 of 48 participants,6.3%
same,participants with decreased creatinine clearance,"[5]; 6 of 8 participants, Cohort 4 (1,600 mg single dose)",75%
same,participants with treatment-emergent adverse events (TEAEs),"[5]; 10 of 48 participants, compound 16 or placebo, Cohorts 1-6",21%
same,participants with decreased creatinine clearance,[5]; 13 of 48 participants overall,27%
same,participants with a decrease in creatinine clearance,[5]; 18 of 58 participants who received compound 16,31%
same,participants with graded postbaseline laboratory abnormalities,[5]; 25 of 48 participants,52.1%
same,Grade 3 or higher AEs,"[5]; 48 participants, Cohorts 1-6",no Grade 3 or higher AEs
same,serious AEs,"[5]; 48 participants, Cohorts 1-6",no serious AEs
same,Grade 3 laboratory abnormality (lipase elevation at Day 3),[5]; Cohort 2 (300 mg single dose),one Grade 3 laboratory abnormality
same,"changes in vital signs, electrocardiograms (ECGs), visual acuity, or fundoscopic examinations",[5]; Cohorts 1-6,no clinically relevant changes
same,safety and tolerability,"[5]; Example 2, Cohorts 1-6, compound 16 or placebo",safe and well tolerated
same,safety and tolerability,"[5]; Example 4, healthy participants",safe and well tolerated
same,AE,[5]; Fasted 500 mg (n = 11),3 n
same,AE related to study drug,[5]; Fasted 500 mg (n = 11),1 n
same,Grade 2 creatinine clearance decrease,[5]; Fasted 500 mg (n = 11),2 n
same,Grade 2 laboratory abnormalities,[5]; Fasted 500 mg (n = 11),2 n
same,Grade 3 laboratory abnormalities,[5]; Fasted 500 mg (n = 11),0 n
same,Grade 3 lipase increase,[5]; Fasted 500 mg (n = 11),0 n
same,Grade ≥3 AE,[5]; Fasted 500 mg (n = 11),0 n
same,AE,[5]; Fed 500 mg (n = 11),1 n
same,AE related to study drug,[5]; Fed 500 mg (n = 11),0 n
same,Grade 2 creatinine clearance decrease,[5]; Fed 500 mg (n = 11),5 n
same,Grade 2 laboratory abnormalities,[5]; Fed 500 mg (n = 11),5 n
same,Grade 3 laboratory abnormalities,[5]; Fed 500 mg (n = 11),0 n
same,Grade 3 lipase increase,[5]; Fed 500 mg (n = 11),0 n
same,Grade ≥3 AE,[5]; Fed 500 mg (n = 11),0 n
same,AE,[5]; single dose 100 mg (n = 6),1 n
same,AE related to study drug,[5]; single dose 100 mg (n = 6),0 n
same,Grade 2 creatinine clearance decrease,[5]; single dose 100 mg (n = 6),0 n
same,Grade 2 laboratory abnormalities,[5]; single dose 100 mg (n = 6),1 n
same,Grade 3 laboratory abnormalities,[5]; single dose 100 mg (n = 6),0 n
same,Grade 3 lipase increase,[5]; single dose 100 mg (n = 6),0 n
same,Grade ≥3 AE,[5]; single dose 100 mg (n = 6),0 n
same,AE,[5]; single dose 300 mg (n = 6),0 n
same,AE related to study drug,[5]; single dose 300 mg (n = 6),0 n
same,Grade 2 creatinine clearance decrease,[5]; single dose 300 mg (n = 6),1 n
same,Grade 2 laboratory abnormalities,[5]; single dose 300 mg (n = 6),1 n
same,Grade 3 laboratory abnormalities,[5]; single dose 300 mg (n = 6),1 n
same,Grade 3 lipase increase,[5]; single dose 300 mg (n = 6),1 n
same,Grade ≥3 AE,[5]; single dose 300 mg (n = 6),0 n
same,AE,[5]; single dose 900 mg (n = 6),0 n
same,AE related to study drug,[5]; single dose 900 mg (n = 6),0 n
same,Grade 2 creatinine clearance decrease,[5]; single dose 900 mg (n = 6),2 n
same,Grade 2 laboratory abnormalities,[5]; single dose 900 mg (n = 6),2 n
same,Grade 3 laboratory abnormalities,[5]; single dose 900 mg (n = 6),0 n
same,Grade 3 lipase increase,[5]; single dose 900 mg (n = 6),0 n
same,Grade ≥3 AE,[5]; single dose 900 mg (n = 6),0 n
same,AE,[5]; single dose 1600 mg (n = 6),2 n
same,AE related to study drug,[5]; single dose 1600 mg (n = 6),0 n
same,Grade 2 creatinine clearance decrease,[5]; single dose 1600 mg (n = 6),6 n
same,Grade 2 laboratory abnormalities,[5]; single dose 1600 mg (n = 6),6 n
same,Grade 3 laboratory abnormalities,[5]; single dose 1600 mg (n = 6),0 n
same,Grade 3 lipase increase,[5]; single dose 1600 mg (n = 6),0 n
same,Grade ≥3 AE,[5]; single dose 1600 mg (n = 6),0 n
same,intracellular concentrations of compound A in PBMCs versus dose,[6],Dose-proportional increases
same,target therapeutic exposures of plasma compound 1 and intracellular compound A,"[7]; 900 mg QD and 500 mg BID for 5 days, respectively",reached or exceeded
same,dose proportionality of compound 1 PK,[7]; 1600 mg dose,less than dose-proportional increases
same,dose proportionality of compound 1 PK,[7]; 100 to 900 mg range,linear and dose-proportional PK
same,compound 16 prodrug levels in plasma,[7]; healthy participants,either undetectable or low and transient
CCC(CC)COC(=O)[C@H](C)N[P@](=O)(OC[C@H]1O[C@@](C#N)(c2ccc3c(N)ncnn23)[C@H](O)[C@@H]1O)Oc1ccccc1 [remdesivir],plasma increase of compound 1 AUCinf,[8],~35%
same,plasma increase of compound 1 Cmax,[8],~10%
same,compound 1 renal clearance (CLr) after remdesivir or compound 16 administration,[4]; amount excreted in urine over the corresponding plasma AUC,comparable

# — US20240131045A1, “METHODS FOR TREATMENT OF VIRAL INFECTIONS” (priority 2022, published 2024)
